Test results as given in patent publication US9353082B2, “Pharmaceutical compounds” (BIAL—PORTELA & CA, S.A., priority 2008, dated 2016).

Tests used:
FAAH [1] = target: T1, FAAH (Mus musculus, UniProt O08914); test: In vivo FAAH inhibition after oral dosing, remaining activity in liver homogenate (LVh, peripheral tissue); parameters: species or system NMRI mice; conditions: liver homogenate, 3 mg/kg oral, 8 h; low value = strong inhibitor
T1 construct: A fragment of liver, left lung lobe and brain without cerebellum were removed; from tissue; host or cells: male NMRI mice; brain (without cerebellum) and liver homogenates
T1 sequence (O08914 1-579): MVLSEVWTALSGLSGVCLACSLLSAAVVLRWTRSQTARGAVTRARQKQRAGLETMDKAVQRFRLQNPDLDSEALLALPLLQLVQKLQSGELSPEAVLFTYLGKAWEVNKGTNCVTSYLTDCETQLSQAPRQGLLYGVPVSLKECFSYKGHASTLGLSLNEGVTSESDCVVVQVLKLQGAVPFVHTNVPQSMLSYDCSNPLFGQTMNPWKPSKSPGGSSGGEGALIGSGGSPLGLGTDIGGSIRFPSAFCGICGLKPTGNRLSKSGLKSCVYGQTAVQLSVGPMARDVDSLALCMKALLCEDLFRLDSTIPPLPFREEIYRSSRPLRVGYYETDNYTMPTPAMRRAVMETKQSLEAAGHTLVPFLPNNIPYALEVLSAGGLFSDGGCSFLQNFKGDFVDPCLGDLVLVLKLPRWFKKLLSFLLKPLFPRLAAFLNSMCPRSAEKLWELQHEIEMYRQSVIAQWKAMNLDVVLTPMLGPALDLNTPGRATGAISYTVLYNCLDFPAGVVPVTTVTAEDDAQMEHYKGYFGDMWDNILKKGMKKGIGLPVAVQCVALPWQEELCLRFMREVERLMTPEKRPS
Procedure, shortened: (§1)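 Remaining FAAH activity is given as % of vehicle-treated controls after blank subtraction, measured by radiolabelled AEA hydrolysis (2 μM AEA, 5 nM 3H-AEA, 37 °C) in brain (10 min) or liver (7 min) homogenates. These came from fasted male NMRI mice dosed orally at 30 or 3 mg/kg.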

FAAH [2] = target: T1, FAAH; test: In vivo FAAH inhibition after oral dosing, remaining activity in brain homogenate (BRh, central nervous tissue); parameters: species or system NMRI mice; conditions: brain homogenate, 3 mg/kg oral, 8 h; low value = strong inhibitor
Procedure, shortened: as §1

| SMILES | In Vivo LVh 3 mg · kg · 8 h (remaining FAAH activity) (FAAH [1]) | In Vivo BRh 3 mg · kg · 8 h (remaining FAAH activity) (FAAH [2]) |
| --- | --- | --- |
| CN(C(=O)n1cnc(-c2ccc(O)c([N+](=O)[O-])c2)c1)C1CCOCC1 [Compound no. 494, 4-(4-hydroxy-3-nitrophenyl)-N-methyl-N-(tetrahydro-2H-pyran-4-yl)-1H-imidazole-1-carboxamide] | 22.9 % of control | 48.9 % of control |
| CN(C(=O)n1cnc(-c2ccc(O)c(F)c2)c1)C1CCOCC1 [Compound no. 495, 4-(3-fluoro-4-hydroxyphenyl)-N-methyl-N-(tetrahydro-2H-pyran-4-yl)-1H-imidazole-1-carboxamide] | 2.3 % of control | 2.1 % of control |
| CCCN1CCC(N(C)C(=O)n2cnc(-c3cccc(OC)c3)c2)CC1 [Compound no. 498, 4-(3-methoxyphenyl)-N-methyl-N-(1-propylpiperidin-4-yl)-1H-imidazole-1-carboxamide] | 12.6 % of control | 21.4 % of control |
| CN(C(=O)n1cnc(-c2ccc(O)c(C(N)=O)c2)c1)C1CCCCC1 [Compound no. 499, 4-(3-carbamoyl-4-hydroxyphenyl)-N-cyclohexyl-N-methyl-1H-imidazole-1-carboxamide] | 44.1 % of control | 120.6 % of control |
| CN(C(=O)n1cnc(-c2ccc(F)c(O)c2)c1)C1CCOCC1 [Compound no. 500, 4-(4-fluoro-3-hydroxyphenyl)-N-methyl-N-(tetrahydro-2H-pyran-4-yl)-1H-imidazole-1-carboxamide] | 21.8 % of control | 75.1 % of control |
| COc1ccc(-c2cn(C(=O)N(C)C3CCNCC3)cn2)cc1 [Compound no. 501, 4-(4-methoxyphenyl)-N-methyl-N-(piperidin-4-yl)-1H-imidazole-1-carboxamide] | 67.4 % of control | 108.5 % of control |
| CCN1CCC(N(C)C(=O)n2cnc(-c3cccc(OC)c3)c2)CC1 [Compound no. 502, N-(1-ethylpiperidin-4-yl)-4-(3-methoxyphenyl)-N-methyl-1H-imidazole-1-carboxamide] | 11.5 % of control | 50.2 % of control |
| CCN1CCC(N(C)C(=O)n2cnc(-c3ccc(OC)c(F)c3)c2)CC1 [Compound no. 503, N-(1-ethylpiperidin-4-yl)-4-(3-fluoro-4-methoxyphenyl)-N-methyl-1H-imidazole-1-carboxamide] | 25.1 % of control | 78.8 % of control |
| CN(C(=O)n1cnc(-c2ccccc2)c1)C1CCNCC1.Cl [Compound no. 504, N-methyl-4-phenyl-N-(piperidin-4-yl)-1H-imidazole-1-carboxamide hydrochloride] | 51.2 % of control | 112.5 % of control |
| COc1ccc(-c2cn(C(=O)N(C)C3CCCCC3)cn2)cc1/C(N)=N\O [Compound no. 507, (E)—N-cyclohexyl-4-(3-(N′-hydroxycarbamimidoyl)-4-methoxyphenyl)-N-methyl-1H-imidazole-1-carboxamide] | 34 % of control | 101.7 % of control |
| CCN1CCC(N(C)C(=O)n2cnc(-c3cccc([N+](=O)[O-])c3)c2)CC1 [Compound no. 509, N-(1-ethylpiperidin-4-yl)-N-methyl-4-(3-nitrophenyl)-1H-imidazole-1-carboxamide] | 17.2 % of control | 78.3 % of control |
